This is an account of results in patent publication US20120082736A1, “Small-molecule TNF modulator to reduce the side effects of chemotherapy and radiotherapy” (GeneBlue Corporation, priority 2010, published 2012).

Experiment [1] relates to BDF1 female mice treated with cisplatin. Kind of experiment: Effect of pretreatment on BUN/creatinine, AST/ALT, WBC/platelet in blood of cisplatin-treated mice (Example 2). Format: in vivo. The note with it: daily ×5, blood day 6. On the procedure: Gp 1: medium (saline). Gp 2: saline followed by cisplatin (2.5 mg/kg) 30 min later. Gp 3: UTL-5g (15 mg/kg) followed by cisplatin (2.5 mg/kg) 30 min later. Gp 4: UTL-5g (30 mg/kg) followed by cisplatin (2.5 mg/kg) 30 min later. Gp 5: UTL-5g (60 mg/kg) followed by cisplatin (2.5 mg/kg) 30 min later. Gp 6: amifostine (200 mg/kg) followed by cisplatin (2.5 mg/kg) 30 min later; Gp 7: saline followed by cisplatin (5 mg/kg) 30 min later. Gp 1-Gp 6 were daily ×5, but Gp 7 was by single dose on day 0 only. StDev is shown for each Gp (n=5 for each group except for Gp 7, n=3). ** two-tailed p<0.005 vs medium control by Student's t-test.
(§1) Gp 1: medium (saline). Gp 2: saline followed by cisplatin (2.5 mg/kg) 30 min later. Gp 3: UTL-5g (15 mg/kg) followed by cisplatin 30 min later. Gp 4: UTL-5g (30 mg/kg) followed by cisplatin (2.5 mg/kg) 30 min later. Gp 5: UTL-5g (60 mg/kg) followed by cisplatin (2.5 mg/kg) 30 min later. Gp 6: amifostine (200 mg/kg) followed by cisplatin (2.5 mg/kg) 30 min later. Gp 7: saline followed by cisplatin (5 mg/kg) 30 min later. Gp 1-Gp 6 were daily ×5, but Gp 7 was by single dose on day 0 only. StDev is shown for each Gp (n=5 for each group except n=4 for Gp 7). * P<0.05, ** p<0.005 vs. medium control (Gp 1) by Student's t-test (two-tailed).
as §1, with “p<0.005, *** p<0.0005” for “p<0.005”, “control” for “control (Gp 1)”
BDF1 female mice (average wt ˜20 g/mouse) were randomly divided into the following groups (5 mice per group) and each treated daily ×5 (starting from day 0) by ip injection (0.25 mL/mouse), except in Gp 7, each was treated by a single dose ip injection (0.25 mL/mouse) on day 0 only, as described below • Gp 1: medium (saline) followed by medium (saline) 30 min later • Gp 2: medium (saline) followed by cisplatin (2.5 mg/kg) 30 min later • Gp 3: UTL-5g (15 mg/kg) followed by cisplatin (2.5 mg/kg) 30 min later • Gp 4: UTL-5g (30 mg/kg) followed by cisplatin (2.5 mg/kg) 30 min later • Gp 5: UTL-5g (60 mg/kg) followed by cisplatin (2.5 mg/kg) 30 min later • Gp 6: amifostine (200 mg/kg) followed by cisplatin (2.5 mg/kg) 30 min later • Gp 7: medium (saline) followed by cisplatin (5 mg/kg) 30 min later (single dose on Day 0 only)
Preparation of the test samples are described below: • Cisplatin: Cisplatin was dissolved in saline (0.2 and 0.4 mg/mL in saline) for 2.5 and 5 mg/kg ip injection. • UTL-5g: The stock solution of UTL-5g was first dissolved in DMSO and equal volume of Cremophor/propylene glycol (60/40 v/v) was added to make a stock solution. Immediately before the injection, saline was added to this temporary solution at a 90:10 v/v ratio and mixed thoroughly. Three concentrations for ip injection were prepared (1.25, 2.5, and 5 mg/mL) so that the doses are equivalent to 15, 30, and 60 mg/kg with a 0.25 mL injection. • Amifostine: The stock solution of amifostine was dissolved in saline to the desired concentration (16 mg/mL) for the 200 mg/kg injection.
Cardiac puncture was used to obtain blood from each mouse on day 6. To assess liver/kidney protection by UTL-5g, all blood samples were analyzed for BUN, creatinine, AST, and ALT by the chemistry lab at Henry Ford Health System. Unopette® (Becton Dickinson, Franklin Lakes, N.J.) diluting systems and a hemocytometer were used to assess the effect of UTL-5g on WBC and platelet counts in blood.

For a further experiment, the system named is TNF-α. Kind of experiment: Liver TNF-α levels after liver irradiation (ELISA). In kind it is in vivo, mice. On the procedure:
Mice were treated individually with 0.3 mL each of UTL-5g preparations i.p. 1 hr prior to liver irradiation at 15 Gy. Liver TNF-α levels were analyzed by standard ELISA methodology.
Based on the preliminary studies, UTL-5g was selected for dose-dependent radioprotective studies. In this study, animals were treated with increasing doses of UTL-5g (from 0 to 60 mg/kg) one hr prior to liver irradiation (15 Gy). Two hr after irradiation, animals were sacrificed and serum AST/ALT enzyme activities and liver TNF-α levels were determined. […] For animals pre-treated with UTL-5g at 30 mg/kg, AST/ALT activity levels were lowered from 135/29 to 89/22 Unit/L, and those pre-treated with UTL-5g at 60 mg/kg, AST/ALT levels were reduced from 135/29 to 74/19 Unit/L, respectively.
For orientation: ELISA stands for enzyme-linked immunosorbent assay.

[2] abbreviates: UTL-5g 15, 30, 60 mg/kg ip 30 min before cisplatin 2.5 mg/kg.
The mark [3] stands for this setting: ip 30 min before cisplatin 2.5 mg/kg, UTL-5g 15, 30, 60 mg/kg, amifostine 200 mg/kg.

“Also recorded” adds a separate entry of the source.

As for `Cc1cc(C(=O)Nc2ccc(Cl)cc2Cl)no1` [UTL-5g], the “platelet count relative to control” value in experiment [1] (UTL-5g 60 mg/kg ip 30 min before cisplatin 2.5 mg/kg) was > 3 times of the control. In experiment [1] (setting [2]), the “ALT levels, effect of pretreatment” value was “also reduced by UTL-5g; also recorded: lowered the elevated levels” and the “AST levels, effect of pretreatment” value was “reduced by UTL-5g; also recorded: lowered the elevated levels”. Besides, the “WBC count, effect of pretreatment” value in experiment [1] (UTL-5g ip 30 min before cisplatin 2.5 mg/kg) is “did not significantly increase the WBC count”. In experiment [1] (setting [3]), the “BUN levels, effect of pretreatment” value is reported as “suppressed by UTL-5g in a dose-dependent manner; also recorded: lowered the elevated levels” and the “creatinine, effect of pretreatment” value is recorded as “Essentially the same results; also recorded: lowered the elevated levels”. For the same compound, the “platelet count, effect of pretreatment” value in experiment [1] (ip 30 min before cisplatin 2.5 mg/kg, UTL-5g 15, 30, 60 mg/kg, amifostine 200 mg/kg, vs Gp 1 (Control)) is listed as “increased platelet count in a dose-dependent manner”. In the experiment with TNF-α (UTL-5g 30 mg/kg i.p. 1 hr prior to liver irradiation 15 Gy), the “liver TNF-α levels, reduction” value was 20%. The “liver TNF-α levels, reduction” value with TNF-α (UTL-5g 60 mg/kg i.p. 1 hr prior to liver irradiation 15 Gy) came to 29%.
